Assay [1] has as its system Medulloblastome. The experiment in a line: Effect on medulloblastomas.
Assay [2] concerns Panc1 Pankreaskrebszellen. The assay is described as follows: subG1 apoptotic fraction, propidium iodide, flow cytometry. The assay is classed as cell-based. The settings on record: 50 µg/ml, 4 Tage. How it is done: (§1) Die Zellen (IEC6 mausartige Enterozyten; Panc1 Pankreaskrebszellen; Colo205 Kolonkarzinom) wurden mit 50 µg/ml Silanen inkubiert und nach 4-tägiger Aussetzung auf DNA eingefärbt (Propidiumiodid). Die SubG1 Zellteilung wurde mittels Durchflusscytometrie bestimmt.

For assay [3], the system named is Colo205 Kolonkarzinom. The description is as above. The assay is classed as cell-based. Conditions: 50 µg/ml, 4 Tage. The protocol: as §1
Assay [4] deals with Normale Zellen. The experiment in a line: Mean IC50 over all normal cell lines. The class given is cell-based. Conditions: read-out: IC50 Normale Zellen (Durchschnitt ± SD). How it is done: (§2) Die Silane 1, 5, 9, 10, 11, 13, 15, 16 wurden in Ethanol gelöst und in MTT Assays in einer anfänglichen Konzentration von 200 µg/ml (5 Lösungsschritte 200 - 12.5 µg/ml) verwendet. Die Platten wurde für eine Dauer.von 4 Tagen inkubiert und die Entwicklungsfähigkeit mithilfe des EZ4U Test bestimmt. Die IC50 Werte wurden ausgehend von Dosierungs-Reaktions-Linien berechnet Zelllinien: Colo 205 and HT29 - Kolonkarzinom; BxPC3 and MIAPaCa2 - Pankreaskrebs; CRO2B - karzinoid, A431 Epidermalkarzinom; normale Zellen: WI38 - humane embryonale Fibroblasten; NIH3T3 - mausartige Fibroblasten; IEC6 - mausartige Enterozyten.
(§3) Mittelwerte-IC50 für alle Krebs- oder normalen Zelllinien: […]

Assay [5] concerns CRO2B - karzinoid. The assay is described as follows: MTT assay / EZ4U test, 4 days. The assay is classed as cell-based. Conditions: read-out: IC50 CR02B. The protocol: as §2
The subject of assay [6] is IEC6 - mausartige Enterozyten. The experiment in a line: MTT assay / EZ4U test, 4 days. The assay is classed as cell-based. The settings on record: Rattus norvegicus, IEC-6, read-out: IC50 IEC6. The protocol: as §2
(Tetrazolium assays rely on reduction of a dye to a coloured formazan, in cell work by metabolically active cells.)

The test system of assay [7] is NIH3T3 - mausartige Fibroblasten. The assay is described as follows: MTT assay / EZ4U test, 4 days. The assay is classed as cell-based. The settings on record: Mus musculus, NIH3T3, read-out: IC50 NIH3T3. How it is done: as §2
The subject of assay [8] is BxPC3 - Pankreaskrebs. The assay is described as follows: MTT assay / EZ4U test, 4 days. The class given is cell-based. The settings on record: Homo sapiens, BXPC-3, read-out: IC50 BxPC3. How it is done:
as §2

Assay [9] deals with A431 Epidermalkarzinom. The assay is described as follows: MTT assay / EZ4U test, 4 days. The class given is cell-based. The settings on record: Homo sapiens, A-431, read-out: IC50 A431. How it is done:
as §2

Assay [10] has as its system HT29 - Kolonkarzinom. The experiment in a line: MTT assay / EZ4U test, 4 days. The assay is classed as cell-based. The settings on record: Homo sapiens, HT-29, read-out: IC50 HT29. The protocol: as §2
Assay [11] has as its system MIAPaCa2 - Pankreaskrebs. The experiment in a line: MTT assay / EZ4U test, 4 days. Conditions: Homo sapiens, MIA PaCa-2, read-out: IC50 MlAPaCa2. The class given is cell-based. How it is done:
as §2

Assay [12] deals with WI38 - humane embryonale Fibroblasten. The experiment in a line: MTT assay / EZ4U test, 4 days. The class given is cell-based. The settings on record: Homo sapiens, WI-38, read-out: IC50 WI38. How it is done:
as §2

The subject of assay [13] is Colo 205 - Kolonkarzinom. The assay is described as follows: MTT assay / EZ4U test, 4 days. The assay is classed as cell-based. The settings on record: Homo sapiens, COLO 205, read-out: IC50 Colo205. The protocol: as §2
Assay [14] concerns Krebszellen. The experiment in a line: Mean IC50 over all cancer cell lines. The assay is classed as cell-based. Conditions: read-out: IC50 Krebszellen (Durchschnitt ± SD). The protocol: as §2, §3
The subject of assay [15] is colo205 (Kofon-Karzinom). The experiment in a line: MTT test, triplicate, two-fold dilutions. The class given is cell-based. Conditions: Homo sapiens, COLO 205, read-out: IC50 Colo205. The protocol:
(§4) Die Silan wurden in Ethanol aufgelöst und in Zellkulturmedien in Konzentrationen von bis zu 500 µg/ml resuspendiert. Es wurden MTT Tests in dreifacher Ausführung durchgeführt, für welche doppelte Lösungen (7 Schritte) und colo205 (Kofon-Karzinom), BxPC3 (pankreatisches Adenokarzinom) sowie T47D (Brustkrebs) benutzt wurden.

Assay [16] relates to T47D (Brustkrebs). The assay is described as follows: MTT test, triplicate, two-fold dilutions. Conditions: Homo sapiens, T47D, read-out: IC50 T47D. The assay is classed as cell-based. The protocol: as §4
Assay [17] relates to BxPC3 (pankreatisches Adenokarzinom). The experiment in a line: MTT test, triplicate, two-fold dilutions. The class given is cell-based. The settings on record: Homo sapiens, BXPC-3, read-out: IC50 BxPC3. How it is done: as §4

Molecules are shown by their SMILES. Converted amounts (≈) assume the structure as drawn. Numbered stars: 1 amine (or outer) side, 2 acyl side, 3 side chain; on linkers, the order of the positions; unused ones are H or OH. Bridge positions count the residues as written; N and C are the ends. Peptide text beside a SMILES is read from it. I, II: the chains in the order shown. OSiEt2O = CC[Si](CC)(O[*:1])O[*:2]

As for `CC[Si](CC)(OC(=O)[C@H](Cc1ccccc1)NC(=O)[C@H](Cc1ccccc1)NC(=O)[C@H](Cc1ccccc1)NC(=O)[C@H](Cc1ccccc1)NC(=O)[C@H](Cc1ccccc1)NC(=O)[C@H](Cc1ccccc1)NC(=O)[C@H](Cc1ccccc1)NC(=O)[C@H](Cc1ccccc1)NC(=O)[C@@H](N)Cc1ccccc1)OC(=O)[C@H](Cc1ccccc1)NC(=O)[C@H](Cc1ccccc1)NC(=O)[C@H](Cc1ccccc1)NC(=O)[C@H](Cc1ccccc1)NC(=O)[C@H](Cc1ccccc1)NC(=O)[C@H](Cc1ccccc1)NC(=O)[C@H](Cc1ccccc1)NC(=O)[C@H](Cc1ccccc1)NC(=O)[C@@H](N)Cc1ccccc1` [Diethyl bis(nonaphenylalanyl)silylester] (I: H-FFFFFFFFF / II: H-FFFFFFFFF; linker I:C-II:C via OSiEt2O), in assay [1], the “Wirkung gegen Medulloblastome” value was “zeigen eine Wirkung”.

In the case of `C[Si](C)(OC(=O)CNC(=O)CNC(=O)CNC(=O)CNC(=O)CNC(=O)CNC(=O)CNC(=O)CNC(=O)CN)OC(=O)CNC(=O)CNC(=O)CNC(=O)CNC(=O)CNC(=O)CNC(=O)CNC(=O)CNC(=O)CN` [Dimethyl bis(nonaglycyl)silylester], in assay [1], the “Wirkung gegen Medulloblastome” value is reported as “zeigen eine Wirkung”.

Consider `CC[Si](CC)(OC(=O)CNC(=O)CNC(=O)CNC(=O)CN)OC(=O)CNC(=O)CNC(=O)CNC(=O)CN` [Diethyl bis(tetraglycyl)silylester] (I: H-GGGG / II: H-GGGG; linker I:C-II:C via OSiEt2O), for which the “Wirkung gegen Medulloblastome” value in [1] was “zeigen eine Wirkung”.

In the case of `CCCCCCCCCCCCCCCCCC(=O)O[Si](CC)(CC)OC(=O)CCCCCCCCCCCCCCCCC` [Si13, Di (octadecanoyloxy) diethylsilan], in [2], the “subG1 apoptotische Zellteilung Panc1” value was 36,7 ± 0,5. For the same compound, the “subG1 apoptotische Zellteilung Colo205” value in [3] is listed as 4,8 ± 0,49. The IC50 (commonly the midpoint of a concentration-inhibition curve) was 18 µg/mL (≈ 27.6 µM) in [4]; 17.8 µg/mL (≈ 27.3 µM) in [5]; 17 µg/mL (≈ 26 µM) in assay [6]; 20.6 µg/mL (≈ 31.5 µM) in assay [7]; 17.5 µg/mL (≈ 26.8 µM) in assay [8]; 15.9 µg/mL (≈ 24.3 µM) in [9]. Further, the IC50 was 18.3 µg/mL (≈ 28 µM) in assay [10]; 110 µg/mL (≈ 168 µM) in assay [11]; 16.5 µg/mL (≈ 25.3 µM) in assay [12]; 47.5 µg/mL (≈ 72.7 µM) in assay [13]; 17.3 µg/mL (≈ 26.5 µM) in [14]; 125 µg/mL (≈ 191 µM) in assay [15]. Moreover, the IC50 in [16] came out at 8 µg/mL (≈ 12.2 µM); in assay [17], 10 µg/mL (≈ 15.3 µM).

(Values after patent EP1948196B1, “USE OF TETRAORGANOSILICON COMPOUNDS” (Salama, Zoser B., priority 2005, dated 2007).)
